Experimental data taken from US9320772B2, “Herbal composition for treating anxiety related conditions” (OPMOP LTD., priority 2010, dated 2016).
“Also recorded” adds a separate entry of the source.

Columns and labels:
BALB mice = experiment: Novel open field test after acute stress (Yohimibine injection); assay type: in vivo; details: 15 mg/kg/day i.p., three weeks of treatment, after Yohimibine i.p. 1.25 mg/kg, p<0.05 adaptogenic mixture, p<0.0.1 escitalopram
Protocol: FIG. 2A: Effect of treatment in the novel open field Test following one week of treatment. FIG. 2B: Effect of treatment in the novel open field Test following two weeks of treatment. […] Mice were treated through i.p. injection with the adaptogenic mixture (15 mg/kg/day), escitalopram (15 mg/kg/day) or vehicle. The acute stress was obtained with Yohimibine i.p injection, a drug known to activate a stress-reaction (Vasa et al., 2009). […] The Novel Open Field is another well-established test of anxiety-related behavior in rodents. The Open Field area generally consists of an empty and bright square arena, surrounded by walls to prevent the rodent from escaping. The rodent is usually placed in the center of the arena and its behavior recorded over a chosen period. The Novel Open Field task approaches the conflict between the innate fear that rodents have of the central area of a novel or brightly lit open field versus their desire to explore new environments. When anxious, the natural tendency of rodents is to prefer staying close to the walls. In this context, anxiety-related behavior is measured by the degree to which the rodent avoids the center of the arena.

ICR mice = experiment: Elevated plus maze after maternal separation and unpredictable chronic mild stress, treatment after stress; assay type: in vivo; details: stressed ICR mice, 15 mg/kg i.p., 21 days, p<0.05
Protocol: On the day of parturition, PND 0 (postnatal day), litters were randomly assigned to undergo MS or to be standard facility reared (SFR) controls. SFR animals were left undisturbed during the entire stress manipulation (both maternal separation and unpredictable chronic mild stress manipulation), except for routine cage maintenance performed once a week. MS procedure was carried out once per day from PND 1-14. The MS procedure was performed by removing the pups from the home cage and placing them together in a separate clean cage placed on a heating pad (30-33° C.) in order to keep the pups in a temperature close to the dam's natural body temperature. 6 hours later, pups were returned to their home cage. […] Elevated plus-maze: Each mouse was placed in the center of the elevated plus maze and his behavior was recorded for the duration of 5 minutes. […] Subsequent to the stress manipulations, anxiety-like behavior was assessed via the elevated plus maze in order to assess the effect of the stress manipulations. […] Following three weeks of treatment with the relevant drug or vehicle, anxiety-like behavior was assessed via the elevated plus maze. 48 hours thereafter and while mice were still receiving treatment, blood samples were collected following acute stress and Corticosterone levels were measured via radio immunoassay (RIA) assay. […]

Corticosterone [1] = experiment: Corticosterone levels following acute restraint stress (RIA), treatment during stress; assay type: in vivo, mice; details: escitalopram group (15 mg/kg as previously described), 28 days during stress; control 80.9 ng/ml; p<0.05
Protocol: (§1) The day following parturition, postnatal day (PND) 1, the litters underwent a Maternal Separation (MS) procedure that was carried out once a day from PND 1-14. At the age of 21 days, all pups were weaned and sexed. 90 male mice were tagged, weighed, and separated into cages of up to five mice per cage, assigned randomly into four groups of treatment as previously described. Between the age of 28 and 56 days (Adolescence), mice were subjected to an Unpredictable Mild Stress paradigm. In this experiment three different stressors were used—all mice were subjected once a day to one of the following stressors: restrainers; placement in an empty cage with water at the bottom; or inversion of light/dark cycle. To prevent habituation and to provide an unpredictable feature to the stressors, every day different stressor was administered for four hours, at different time points of the day. During the entire stress paradigm, drugs were administrated through i.p. injection of the relevant treatment, for the duration of 28 days. Upon reaching adulthood and following four weeks of treatment, behavior, peripheral hormones and brain monoamines were measured in order to assess the effects of the novel treatment. In order to estimate the endocrinological reaction to acute stress, mice were first placed in restrainers. […]

[2] = tested on: mice subjected to maternal separation and unpredictable mild stress; experiment: Elevated plus maze, treatment during stress; assay type: in vivo; details: 15 mg/kg i.p., 28 days during stress; control (saline) 44 seconds; p<0.05
Protocol: as §1, with “treatment.” for “treatment. In order to estimate the endocrinological reaction to acute stress, mice were first placed in restrainers.”

Corticosterone [3] = experiment: Corticosterone levels following acute restraint stress (RIA), treatment after chronic stress; assay type: in vivo; details: stressed ICR mice, 15 mg/kg i.p., 3 weeks, p<0.05 adaptogenic mixture, p<0.01 escitalopram
Protocol: In order to estimate the endocrinology reaction to acute stress mice were first placed in restraint. Restraint stress is a well documented stressor that initiates an acute transient increase in plasma ACTH and Corticosterone, usually peaking during the course of a 60 min stress exposure. Therefore, following 60 minutes of subjection to restraint stress, blood samples were collected into EDTA-coated tubes from the facial vein. All blood samples were kept on ice and later centrifuged for 10 min at 10000 rpm at 4°. Plasma was transferred to clean, labeled 1.5 ml microcentrifuge tubes. All plasma samples were stored frozen at −20 C.° until the determination of Corticosterone via RIA. Subsequent to the stress manipulations, anxiety-like behavior was assessed via the elevated plus maze in order to assess the effect of the stress manipulations. […] Following three weeks of treatment with the relevant drug or vehicle, anxiety-like behavior was assessed via the elevated plus maze. 48 hours thereafter and while mice were still receiving treatment, blood samples were collected following acute stress and Corticosterone levels were measured via radio immunoassay (RIA) assay. […] Anxiety-related behaviors were assessed using the elevated-plus maze and indicated anxiogenic effect of the stress manipulation. […]

[4] = tested on: Brain-derived neurotrophic factor (BDNF); experiment: Hippocampal BDNF levels by EIA, treatment during stress; assay type: in vivo, mice; details: escitalopram group (15 mg/kg as previously described), 28 days during stress; control (saline) 12 pc/μg; p<0.05
Protocol: (§2) The day following parturition, postnatal day (PND) 1, the litters underwent a Maternal Separation (MS) procedure that was carried out once a day from PND 1-14. At the age of 21 days, all pups were weaned and sexed. 90 male mice were tagged, weighed, and separated into cages of up to five mice per cage, assigned randomly into four groups of treatment as previously described. Between the age of 28 and 56 days (Adolescence), mice were subjected to an Unpredictable Mild Stress paradigm. In this experiment three different stressors were used—all mice were subjected once a day to one of the following stressors: restrainers; placement in an empty cage with water at the bottom; or inversion of light/dark cycle. To prevent habituation and to provide an unpredictable feature to the stressors, every day different stressor was administered for four hours, at different time points of the day. During the entire stress paradigm, drugs were administrated through i.p. injection of the relevant treatment, for the duration of 28 days. Upon reaching adulthood and following four weeks of treatment, behavior, peripheral hormones and brain monoamines were measured in order to assess the effects of the novel treatment.
At the end of the experiment, all treated mice were sacrificed. The brains of the mice were placed in a mold on ice. […] Brain-derived neurotrophic factor (BDNF) was measured by EIA. […]

[5] = tested on: mice subjected to maternal separation and unpredictable mild stress; experiment: Sucrose test, treatment during stress; assay type: in vivo; details: escitalopram group (15 mg/kg as previously described) i.p., 28 days during stress; control (saline) 51 ml; p<0.05
Protocol: as §2, with “treatment. […] After the 12 hours, the amount of ordinary water, sucrose water and food eaten by the mouse, was calculated. […]” for “treatment.”

C57BL/6 mice = experiment: Open Field Test in mice after chronic stress (MSP); assay type: in vivo
Protocol: C57BL/6 male and female infant mice were subjected to chronic stress (MSP) by separation from the dam for 6 hours per day from day 1 to day 14. Anxiety behavior was tested after different anxiolytic treatments. The mice received a daily i.p. injection from day 28 of age for two weeks, of one of the following drugs: Citalopram (10 mg/kg), or the adaptogenic composition of the invention comprising Hawthorn fruit, wheat grain and Lilly Bulb (10 mg/kg). The anxiety behavior was tested in the Open Field Test.

Row | Structure (SMILES) | Time spent inside the field of the control group in comparison to the treated group, novel open field (BALB mice) | Time spent in the open arms in comparison to control group, elevated plus maze (ICR mice) | Corticosterone levels following acute restraint stress (Corticosterone [1]) [ng/mL] | Time spent in the open arms, Elevated Plus Maze [2] [s] | Corticosterone levels following acute restraint stress in comparison to control group (Corticosterone [3]) | BDNF levels (hippocampus) [4] [pc/μg] | Sucrose consumption, sucrose test [5] [mL] | Time inside the center of the arena, Open Field Test (C57BL/6 mice; MSP (chronically stressed) C57BL/6 mice, 10 mg/kg i.p. daily for two weeks, saline 1.8 seconds, n=16) [s] | Entries to the inside of the arena, Open Field Test (C57BL/6 mice; MSP C57BL/6 mice, 10 mg/kg i.p. daily for two weeks, saline 1.6 times, n=16) [times] | Time inside the center of the arena, Open Field Test (C57BL/6 mice; treated, unstressed mice, 10 mg/kg i.p., saline unstressed 4.5 seconds) [s]
1 | CN(C)CCC[C@@]1(c2ccc(F)cc2)OCc2cc(C#N)ccc21 [escitalopram, Escitalopram] | significantly less pronounced | significantly more time; also recorded: same effect | 77.3 | 64 | significantly lower; also recorded: same effect | 16 | 55 | – | – | –
2 | CN(C)CCCC1(c2ccc(F)cc2)OCc2cc(C#N)ccc21 (stereo not shown) [Citalopram] | – | – | – | – | – | – | – | 2.5 | 2.4 | 4.6
